The target in assay [1] is T1, human serum albumin (HSA) (Homo sapiens, UniProt P02768).
T1 construct: gene ALB
Put plainly: intrinsic fluorescence quenching (Stern-Volmer, apparent Ka), with displacement of fluorescent site probes. Format: binding.

Assay [2] has as its target T1, human serum albumin (HSA). Put plainly: probe fluorescence enhancement and blue shift on binding; displaced by apocynin.

pKd: −log10 of the molar value.

T1 sequence (P02768 25-609): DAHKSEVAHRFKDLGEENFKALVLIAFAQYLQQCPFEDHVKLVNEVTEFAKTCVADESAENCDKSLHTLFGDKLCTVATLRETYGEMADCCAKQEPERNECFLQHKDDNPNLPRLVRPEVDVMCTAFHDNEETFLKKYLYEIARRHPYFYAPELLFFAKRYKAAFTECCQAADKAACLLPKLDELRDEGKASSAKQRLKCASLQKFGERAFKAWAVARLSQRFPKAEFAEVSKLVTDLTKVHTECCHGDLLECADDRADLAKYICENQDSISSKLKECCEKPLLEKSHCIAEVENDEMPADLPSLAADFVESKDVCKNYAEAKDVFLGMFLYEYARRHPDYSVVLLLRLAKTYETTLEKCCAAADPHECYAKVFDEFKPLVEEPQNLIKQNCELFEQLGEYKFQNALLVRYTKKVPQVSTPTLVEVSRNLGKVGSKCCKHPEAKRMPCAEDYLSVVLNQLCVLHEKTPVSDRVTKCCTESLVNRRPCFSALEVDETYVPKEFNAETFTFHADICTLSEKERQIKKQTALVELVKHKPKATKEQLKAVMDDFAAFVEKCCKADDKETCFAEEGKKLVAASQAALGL

As a reminder, the pKd is the negative decadic logarithm of the Kd, by convention in mol/L. As for `COc1cc(C(C)=O)ccc1O` [APO, 4-hydroxy-3-methoxyacetophenone], the pKd in assay [1] was 4.34. For `CN(C)c1cccc2c(S(=O)(=O)NCC(=O)O)cccc12` [DG, dansylglycine], the “probe fluorescence enhancement and blue shift on binding; displaced by apocynin” value in assay [2] is “apocynin was able to displace both fluorescent probes, but a greater effect was observed using DNSA”. On the same count and under the same terms, next, `CN(C)c1cccc2c(S(N)(=O)=O)cccc12` [DNSA, 5-(dimethylamino)-1-naphthalenesulfonamide]: “binding of these probes to albumin provoked a significant increase in their fluorescence quantum yield”.

The values are drawn from article PMC6269682, “Apocynin: Chemical and Biophysical Properties of a NADPH Oxidase Inhibitor” (Molecules, 2013).
